Test results from patent US20240310368A1, “DETECTION KIT FOR CATECHOLAMINES AND METABOLITES THEREOF IN PLASMA/URINE AND DETECTION METHOD THEREOF” (Calibra Scientific, Inc., priority 2023, published 2024).
Several values for one entry are separate records, joined by “and”; a condition that tells them apart may be missing. Identical values can stand only once.

Legend:
[1] = Acceleration test of plasma samples with stabilizers (30° C. for 1.5 days, against control plasma stored at −95° C. to −65° C.), LC-MS/MS Area/IS Area
Description: Samples were collected in EDTA-anticoagulant blood collection tubes and then rapidly subjected to […] centrifugation at 2-8° C. to separate plasma. 0.95 mL of the plasma was transferred into centrifuge tubes. After 50 μL of the stabilizer was added for uniform mixing, the plasma samples were stored by refrigeration or freezing.
• (1) 500 μL of plasma/urine samples to be tested were taken, and 50 μL of the internal standard solution and 500 μL of the buffer solution were sequentially added for vertex mixing to obtain diluted samples. • (2) The magnetic medium composite material suspension was subjected to full vortex treatment to reach a suspension state, and then subsequent operation was performed. • (3) Different reagents were added into wells of a preprocessing plate according to the follow operation: adding 200 μL of the magnetic medium composite material suspension in column 1, adding 500 μL of the balance solution in column 2, adding 850 μL of the diluted samples in column 3, adding 500 μL of the balance solution in column 4, adding 200 μL of a rinsing solution in column 5, and adding 100 μL of the elution solution in column 6. • (4) An extraction operation procedure was carried out, as shown in Table 5.
Each group of the plasma samples were stored at 30° C. for 1.5 days, and plasma without addition of any compounds stored at −95° C. to −65° C. was used as a control. […] The stabilizing effect of the single-component stabilizers on the plasma samples was investigated.
The stabilizers were mixed with plasma (the volume ratio of the stabilizers to plasma samples was 1:19), and high concentration plasma samples and low concentration plasma samples were prepared by the method provided in Example 1.
With plasma stored at −95° C. to −65° C. as a control, the above plasma samples were separately stored at 30° C. for 1.5 days to investigate the stability. […]

[2] = Stability of ascorbic acid and glutathione in stabilizers accelerated at 37° C. for 14 days against an unaccelerated stabilizer; type: physicochemical; settings: for stability of ascorbic acid and glutathione in stabilizers after acceleration: 37° C. for 14 days (equivalent to 1 year at 2-8° C.); for Relative deviation %: after acceleration at 37° C. for 14 days vs new formulations
Description: Stabilizers (Example 1) were accelerated at 37° C. for 14 days (equivalent to 1 year at 2-8° C.) and then compared with an unaccelerated stabilizer.

[3] = pH adjustment ability of urine diluents to standard products and urine samples (pH test papers); type: physicochemical, human; settings: 20 μL urine + 480 μL diluent + 50 μL internal standard solution + 500 μL buffer solution
Description: In the present example, standard products of catecholamines in urine and urine samples from different sources (Sample 1 to Sample 6 are urine samples with different pH values) were selected to carry out an experiment. The urine samples were collected within 24 h by the method provided in Example 1, 20 μL of the urine samples were taken, 480 μL of urine diluents shown in Table 30 were added, respectively, then vortex mixing was performed, and 50 μL of an internal standard solution and 500 μL of a buffer solution were sequentially added to obtain urine samples to be tested. Then, pH test papers were used to detect whether the urine samples to be tested were neutral. The pH adjustment ability of different urine diluents to standard products and samples was investigated.
However, some samples are still acidic or alkaline. Thus, ammonium acetate was added on the basis of the formic acid, and different proportions of the formic acid and the ammonium acetate were investigated.

[4] = plasma at a high concentration level, plasma containing 50 μg/mL of the component, control plasma 0.624
[5] = plasma at a high concentration level, plasma containing 50 μg/mL of the component, control plasma 1.522
[6] = plasma at a high concentration level, plasma containing 50 μg/mL of the component, control plasma 2.27
[7] = plasma at a high concentration level, plasma containing 200 μg/mL of the component, control plasma 0.624
[8] = plasma at a high concentration level, plasma containing 200 μg/mL of the component, control plasma 1.522
[9] = plasma at a high concentration level, plasma containing 200 μg/mL of the component, control plasma 2.27
[10] = plasma at a low concentration level, plasma containing 50 μg/mL of the component, control plasma 0.079
[11] = plasma at a low concentration level, plasma containing 50 μg/mL of the component, control plasma 0.219
[12] = plasma at a low concentration level, plasma containing 50 μg/mL of the component, control plasma 0.233
[13] = plasma at a low concentration level, plasma containing 200 μg/mL of the component, control plasma 0.079
[14] = plasma at a low concentration level, plasma containing 200 μg/mL of the component, control plasma 0.219
[15] = plasma at a low concentration level, plasma containing 200 μg/mL of the component, control plasma 0.233
[16] = After acceleration (stabilizer of Example 1, 37° C. for 14 days)
[17] = New formulations (unaccelerated stabilizer of Example 1)

Compound | Ratio (Area/IS Area) E [1, 4] | Ratio (Area/IS Area) NE [1, 5] | Ratio (Area/IS Area) DA [1, 6] | Ratio (Area/IS Area) E [1, 7] | Ratio (Area/IS Area) NE [1, 8] | Ratio (Area/IS Area) DA [1, 9] | Ratio (Area/IS Area) E [1, 10] | Ratio (Area/IS Area) NE [1, 11] | Ratio (Area/IS Area) DA [1, 12] | Ratio (Area/IS Area) E [1, 13] | Ratio (Area/IS Area) NE [1, 14] | Ratio (Area/IS Area) DA [1, 15] | stability of ascorbic acid and glutathione in stabilizers after acceleration [2] | Area [2, 16] | Area [2, 17] | Relative deviation % [2] | also measured
O=C1O[C@H]([C@@H](O)CO)C(O)=C1O [ascorbic acid] | 0 | 0 | 0 | 0.048 | 0 | 0 | 0 | 0 | 0 | 0 | 0 | 0 | maintained stable | 6.96E+05 and 6.32E+05 and 6.08E+05 | 6.88E+05 and 7.26E+05 and 6.96E+05 | −8.2% | –
O=CO [formic acid] | – | – | – | – | – | – | – | – | – | – | – | – | – | – | – | – | Ratio (Area/IS Area) E ([1]; plasma at a high concentration level, plasma containing 0.5% of the acid, control plasma 0.624): 0.295; Ratio (Area/IS Area) NE ([1]; plasma at a high concentration level, plasma containing 0.5% of the acid, control plasma 1.522): 0; Ratio (Area/IS Area) DA ([1]; plasma at a high concentration level, plasma containing 0.5% of the acid, control plasma 2.27): 0; Ratio (Area/IS Area) E ([1]; plasma at a high concentration level, plasma containing 2.0% of the acid, control plasma 0.624): 0; Ratio (Area/IS Area) NE ([1]; plasma at a high concentration level, plasma containing 2.0% of the acid, control plasma 1.522): 0; Ratio (Area/IS Area) DA ([1]; plasma at a high concentration level, plasma containing 2.0% of the acid, control plasma 2.27): 0; Ratio (Area/IS Area) E ([1]; plasma at a low concentration level, plasma containing 0.5% of the acid, control plasma 0.079): 0; Ratio (Area/IS Area) NE ([1]; plasma at a low concentration level, plasma containing 0.5% of the acid, control plasma 0.219): 0; Ratio (Area/IS Area) DA ([1]; plasma at a low concentration level, plasma containing 0.5% of the acid, control plasma 0.233): 0; Ratio (Area/IS Area) E ([1]; plasma at a low concentration level, plasma containing 2.0% of the acid, control plasma 0.079): 0; Ratio (Area/IS Area) NE ([1]; plasma at a low concentration level, plasma containing 2.0% of the acid, control plasma 0.219): 0; Ratio (Area/IS Area) DA ([1]; plasma at a low concentration level, plasma containing 2.0% of the acid, control plasma 0.233): 0; stabilizing effect on catecholamines in plasma ([1]; single components as stabilizers): no obvious stabilizing effect; pH adjustment ability of urine diluent to standard products and samples [3]: uniformly adjust most of samples to neutral
N[C@@H](CCC(=O)N[C@@H](CS)C(=O)NCC(=O)O)C(=O)O [glutathione] | 0 | 0 | 0 | 0 | 0 | 0 | 0 | 0 | 0 | 0 | 0 | 0 | maintained stable | 7.45E+04 and 7.62E+04 and 8.98E+04 | 8.44E+04 | −5.0% | –
